Reference: ChEMBL document CHEMBL5532720, “A Potent Solution for Tumor Growth and Angiogenesis Suppression via an ELR+CXCL-CXCR1/2 Pathway Inhibitor” (ACS Med Chem Lett, 2024)
≈ marks a conversion by molar mass, not a printed value. Calls of active or inactive are those of the source. The calls are words filed in the database; no cut-off is given here.

Tests used:
[1] = test system: Cisplatin and radiotherapy resistant CAL33RR; experiment: Inhibition of CXCL8-dependent cell migration in human Cisplatin and radiotherapy resistant CAL33RR cells at 0.5 uM incubated for 24 hrs by Boyden chamber based crystal violet staining analysis; assay type: functional
[2] = molecular target: Eukaryotic elongation factor 2 kinase (Homo sapiens) (UniProt O00418); experiment: Inhibition of EEF2K (unknown origin) at 10 uM in presence of ATP at Km concentration
[3] = Antiproliferative activity against human Cisplatin and radiotherapy resistant CAL27RR cells incubated for 48 hrs by XTT assay; assay type: functional, cell-based
[4] = Genotoxicity in Salmonella typhimurium TA1537 upto 100 uM in presence of S9 fraction by Ames test; assay type: toxicity, subcellular; settings: salmonella enterica subsp. enterica serovar typhimurium, s9, 100 µM
[5] = Stability of compound at pH 12 measured after 24 hrs; assay type: physicochemical; settings: buffer, pH 12, 24 h
[6] = molecular target: Interleukin-1 receptor-associated kinase 4 (Homo sapiens) (UniProt Q9NWZ3); experiment: Inhibition of IRAK4 (unknown origin) at 10 uM in presence of ATP at Km concentration
[7] = test system: TIME; experiment: Antiangiogenic activity in human TIME cells assessed as disruption of blood vessel network at 2.5 uM incubated for 24 hrs; assay type: functional, cell-based
[8] = molecular target: Angiopoietin-1 receptor (Homo sapiens) (UniProt Q02763); experiment: Inhibition of TEK (unknown origin) at 10 uM in presence of ATP at Km concentration
[9] = test system: A498; experiment: Downregulation of CXCL5 mRNA expression in human A498 cells at 1 to 2.5 uM incubated for 48 hrs by qPCR analysis; assay type: functional, cell-based; settings: dose 1-2.5 µM
[10] = molecular target: Serine/threonine-protein kinase N2 (Homo sapiens) (UniProt Q16513); experiment: Inhibition of PKN2 (unknown origin) at 10 uM in presence of ATP at Km concentration
[11] = Half-life in NOD SCID mouse at 50 mg/kg, po; assay type: ADME, organism-based; settings: in vivo
[12] = molecular target: Ribosomal protein S6 kinase beta-2 (Homo sapiens) (UniProt Q9UBS0); experiment: Inhibition of RPS6KB2 (unknown origin) at 10 uM in presence of ATP at Km concentration
[13] = Stability in human hepatocytes assessed as intrinsic clearance measured per 10^6 cells; assay type: ADME, cell-based, Hepatocyte; settings: read-out: CLH
[14] = test system: A498; experiment: Antimetastatic activity against human A498 cells labeled with vybrant DiD cell-labeling solution xenografted in zebrafish embryo at 1 uM incubated for 72 hrs by fluorescence microscopic imaging analysis; assay type: functional, cell-based
[15] = molecular target: Serine/threonine-protein kinase TAO1 (Homo sapiens) (UniProt Q7L7X3); experiment: Inhibition of TAOK1 (unknown origin) at 10 uM in presence of ATP at Km concentration
[16] = Stability in mouse hepatocytes assessed as intrinsic clearance measured per 10^6 cells; assay type: ADME, cell-based, Hepatocyte; settings: read-out: CLH
[17] = Stability in mouse microsomes assessed as half-life; assay type: ADME, Microsome
[18] = molecular target: Calcium/calmodulin-dependent protein kinase type II subunit beta (Homo sapiens) (UniProt Q13554); experiment: Inhibition of CAMK2B (unknown origin) at 10 uM in presence of ATP at Km concentration
[19] = molecular target: Receptor-interacting serine/threonine-protein kinase 2 (Homo sapiens) (UniProt O43353); experiment: Inhibition of RIPK2 (unknown origin) at 10 uM in presence of ATP at Km concentration
[20] = molecular target: Interleukin-8 receptors, CXCR1/CXCR2 (Homo sapiens) (UniProt P25025+P25024); experiment: Inhibition of CXCR1/2 pathway in human A498 cells assessed as reduction in AKT phosphorylation at 2.5 uM incubated for 24 to 48 hrs by immunoblot analysis; assay type: functional, cell-based; settings: time 24-48 hrs
[21] = Aqueous solubility of compound in PBS; assay type: physicochemical
[22] = molecular target: Myosin-IIIb (Homo sapiens) (UniProt Q8WXR4); experiment: Inhibition of MYO3B (unknown origin) at 10 uM in presence of ATP at Km concentration
[23] = C0 in NOD SCID mouse at 1 mg/kg, iv; assay type: ADME, organism-based; settings: in vivo
[24] = test system: A498; experiment: Effect on VEGFA production in human A498 cells at 1 to 2.5 uM incubated for 48 hrs by ELISA; assay type: functional, cell-based; settings: dose 1-2.5 µM
[25] = Genotoxicity in Salmonella typhimurium TA98 upto 100 uM in presence of S9 fraction by Ames test; assay type: toxicity, subcellular; settings: salmonella enterica subsp. enterica serovar typhimurium, s9, 100 µM
[26] = molecular target: Serine/threonine-protein kinase PAK 4 (Homo sapiens) (UniProt O96013); experiment: Inhibition of PAK4 (unknown origin) at 10 uM in presence of ATP at Km concentration
[27] = molecular target: Mitogen-activated protein kinase kinase kinase kinase 2 (Homo sapiens) (UniProt Q12851); experiment: Inhibition of MAP4K2 (unknown origin) at 10 uM in presence of ATP at Km concentration
[28] = Cmax in NOD SCID mouse at 50 mg/kg, po; assay type: ADME, organism-based; settings: in vivo
[29] = molecular target: Phosphatidylinositol 4-phosphate 3-kinase C2 domain-containing subunit alpha (Homo sapiens) (UniProt O00443); experiment: Inhibition of PIK3C2A (unknown origin) at 10 uM in presence of ATP at Km concentration
[30] = Stability in mouse plasma assessed as compound remaining measured after 120 mins; assay type: ADME, cell-free; settings: read-out: Stability
[31] = Stability in human plasma assessed as half-life; assay type: ADME, cell-free
[32] = test system: 786-0; experiment: Antitumor activity against human 786-0 cells xenografted in athymic nude mouse assessed as tumor growth inhibition at 100 mg/kg, po administered twice daily via gavage for 28 days relative to control; assay type: functional; settings: 786-0, 672 h, time 28 day, read-out: TGI
[33] = Stability in human hepatocytes assessed as half-life; assay type: ADME, cell-based, Hepatocyte
[34] = test system: 786-0; experiment: Antiproliferative activity against human 786-0 cells incubated for 48 hrs by XTT assay; assay type: functional, cell-based; settings: 786-0, 48 h
[35] = molecular target: Casein kinase I isoform epsilon (Homo sapiens) (UniProt P49674); experiment: Inhibition of CSNK1E (unknown origin) at 10 uM in presence of ATP at Km concentration
[36] = Antiproliferative activity against human Cisplatin and radiotherapy resistant CAL33RR cells incubated for 48 hrs by XTT assay; assay type: functional, cell-based
[37] = molecular target: Phosphatidylinositol 4-kinase beta (Homo sapiens) (UniProt Q9UBF8); experiment: Inhibition of PI4KB (unknown origin) at 10 uM in presence of ATP at Km concentration
[38] = molecular target: Serine/threonine-protein kinase D2 (Homo sapiens) (UniProt Q9BZL6); experiment: Inhibition of PRKD2 (unknown origin) at 10 uM in presence of ATP at Km concentration
[39] = molecular target: Vascular endothelial growth factor receptor 2 (Homo sapiens) (UniProt P35968); experiment: Inhibition of KDR (unknown origin) at 10 uM in presence of ATP at Km concentration
[40] = molecular target: Tyrosine-protein kinase Fyn (Homo sapiens) (UniProt P06241); experiment: Inhibition of FYN (unknown origin) at 10 uM in presence of ATP at Km concentration
[41] = Aqueous solubility of compound in SGF at pH 2; assay type: ADME

Sequence of Mitogen-activated protein kinase kinase kinase kinase 2 (Homo sapiens) (Q12851 whole entry): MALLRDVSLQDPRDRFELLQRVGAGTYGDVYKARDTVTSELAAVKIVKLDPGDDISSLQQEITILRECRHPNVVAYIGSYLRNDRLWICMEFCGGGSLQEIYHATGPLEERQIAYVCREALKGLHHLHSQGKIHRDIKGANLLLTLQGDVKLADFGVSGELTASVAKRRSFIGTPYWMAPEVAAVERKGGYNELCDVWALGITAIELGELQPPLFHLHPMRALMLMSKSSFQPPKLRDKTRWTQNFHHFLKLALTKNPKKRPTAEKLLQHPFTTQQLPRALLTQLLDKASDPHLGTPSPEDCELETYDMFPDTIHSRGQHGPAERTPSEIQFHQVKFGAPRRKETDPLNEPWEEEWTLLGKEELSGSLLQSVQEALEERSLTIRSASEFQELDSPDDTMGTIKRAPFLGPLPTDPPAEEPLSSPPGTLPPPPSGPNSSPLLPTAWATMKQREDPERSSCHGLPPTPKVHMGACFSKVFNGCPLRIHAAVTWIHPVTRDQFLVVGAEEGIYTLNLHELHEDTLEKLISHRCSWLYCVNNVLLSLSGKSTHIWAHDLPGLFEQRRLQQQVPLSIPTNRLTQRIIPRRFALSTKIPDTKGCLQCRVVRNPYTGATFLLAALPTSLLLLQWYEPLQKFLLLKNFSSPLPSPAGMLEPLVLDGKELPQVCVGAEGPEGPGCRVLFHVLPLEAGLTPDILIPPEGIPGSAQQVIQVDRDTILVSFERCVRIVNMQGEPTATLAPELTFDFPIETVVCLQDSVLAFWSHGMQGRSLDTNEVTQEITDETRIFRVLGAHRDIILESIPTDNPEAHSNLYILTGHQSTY
Sequence of Receptor-interacting serine/threonine-protein kinase 2 (Homo sapiens) (O43353 whole entry): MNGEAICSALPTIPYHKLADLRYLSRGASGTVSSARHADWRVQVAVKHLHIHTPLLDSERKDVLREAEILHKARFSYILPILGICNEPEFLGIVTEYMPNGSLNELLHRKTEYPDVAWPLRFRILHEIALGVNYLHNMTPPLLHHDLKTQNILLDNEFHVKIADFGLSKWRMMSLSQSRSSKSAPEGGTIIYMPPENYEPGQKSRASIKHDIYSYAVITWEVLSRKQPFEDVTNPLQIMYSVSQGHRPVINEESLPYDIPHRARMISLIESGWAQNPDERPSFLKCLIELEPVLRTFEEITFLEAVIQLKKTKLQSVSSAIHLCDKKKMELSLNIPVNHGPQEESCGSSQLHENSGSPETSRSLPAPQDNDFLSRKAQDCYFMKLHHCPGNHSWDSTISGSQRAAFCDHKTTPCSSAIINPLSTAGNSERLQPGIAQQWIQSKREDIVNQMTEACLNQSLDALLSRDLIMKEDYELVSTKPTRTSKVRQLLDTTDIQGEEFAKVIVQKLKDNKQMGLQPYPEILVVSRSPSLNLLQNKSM
Sequence of Angiopoietin-1 receptor (Homo sapiens) (Q02763 whole entry): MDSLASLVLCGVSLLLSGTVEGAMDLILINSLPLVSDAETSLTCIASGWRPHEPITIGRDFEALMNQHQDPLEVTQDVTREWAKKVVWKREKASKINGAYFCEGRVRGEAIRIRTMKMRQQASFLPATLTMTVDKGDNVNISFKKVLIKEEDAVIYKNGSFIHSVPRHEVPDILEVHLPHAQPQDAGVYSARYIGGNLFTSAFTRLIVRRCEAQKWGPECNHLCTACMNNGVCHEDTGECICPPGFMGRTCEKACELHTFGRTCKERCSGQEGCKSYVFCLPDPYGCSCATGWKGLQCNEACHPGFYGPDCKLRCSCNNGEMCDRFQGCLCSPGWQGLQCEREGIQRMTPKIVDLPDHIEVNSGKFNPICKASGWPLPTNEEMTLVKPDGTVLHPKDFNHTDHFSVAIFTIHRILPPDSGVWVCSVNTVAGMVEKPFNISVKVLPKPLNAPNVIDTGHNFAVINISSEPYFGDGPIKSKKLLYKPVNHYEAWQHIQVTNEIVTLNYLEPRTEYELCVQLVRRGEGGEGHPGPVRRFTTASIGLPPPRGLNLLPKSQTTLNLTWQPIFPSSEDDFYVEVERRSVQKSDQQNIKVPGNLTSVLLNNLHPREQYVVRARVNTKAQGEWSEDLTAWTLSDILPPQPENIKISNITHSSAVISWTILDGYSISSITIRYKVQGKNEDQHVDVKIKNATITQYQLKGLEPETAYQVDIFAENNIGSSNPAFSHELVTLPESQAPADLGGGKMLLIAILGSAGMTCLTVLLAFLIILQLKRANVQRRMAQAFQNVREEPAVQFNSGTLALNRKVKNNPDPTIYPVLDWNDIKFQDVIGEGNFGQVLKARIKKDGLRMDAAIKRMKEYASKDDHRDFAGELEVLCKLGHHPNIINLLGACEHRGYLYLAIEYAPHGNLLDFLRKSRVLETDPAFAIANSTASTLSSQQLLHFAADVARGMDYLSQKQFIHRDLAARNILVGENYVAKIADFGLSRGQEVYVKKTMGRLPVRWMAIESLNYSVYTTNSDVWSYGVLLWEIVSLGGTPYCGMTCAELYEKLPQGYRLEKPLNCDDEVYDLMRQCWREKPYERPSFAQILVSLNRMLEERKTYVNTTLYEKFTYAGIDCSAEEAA
Sequence of Ribosomal protein S6 kinase beta-2 (Homo sapiens) (Q9UBS0 whole entry): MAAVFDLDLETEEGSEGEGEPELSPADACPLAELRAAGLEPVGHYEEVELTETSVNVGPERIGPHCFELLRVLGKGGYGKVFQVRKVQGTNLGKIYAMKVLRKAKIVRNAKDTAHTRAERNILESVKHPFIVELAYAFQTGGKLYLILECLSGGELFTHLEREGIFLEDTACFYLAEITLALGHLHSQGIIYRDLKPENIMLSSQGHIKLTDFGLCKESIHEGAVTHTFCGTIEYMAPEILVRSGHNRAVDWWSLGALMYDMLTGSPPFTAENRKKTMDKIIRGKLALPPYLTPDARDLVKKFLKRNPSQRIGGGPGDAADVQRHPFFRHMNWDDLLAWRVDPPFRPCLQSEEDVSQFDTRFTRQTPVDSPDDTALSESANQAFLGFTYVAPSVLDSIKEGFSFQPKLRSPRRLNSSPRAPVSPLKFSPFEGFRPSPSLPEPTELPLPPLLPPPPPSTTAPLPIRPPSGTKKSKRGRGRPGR
Sequence of Tyrosine-protein kinase Fyn (Homo sapiens) (P06241 2-537 limits assumed): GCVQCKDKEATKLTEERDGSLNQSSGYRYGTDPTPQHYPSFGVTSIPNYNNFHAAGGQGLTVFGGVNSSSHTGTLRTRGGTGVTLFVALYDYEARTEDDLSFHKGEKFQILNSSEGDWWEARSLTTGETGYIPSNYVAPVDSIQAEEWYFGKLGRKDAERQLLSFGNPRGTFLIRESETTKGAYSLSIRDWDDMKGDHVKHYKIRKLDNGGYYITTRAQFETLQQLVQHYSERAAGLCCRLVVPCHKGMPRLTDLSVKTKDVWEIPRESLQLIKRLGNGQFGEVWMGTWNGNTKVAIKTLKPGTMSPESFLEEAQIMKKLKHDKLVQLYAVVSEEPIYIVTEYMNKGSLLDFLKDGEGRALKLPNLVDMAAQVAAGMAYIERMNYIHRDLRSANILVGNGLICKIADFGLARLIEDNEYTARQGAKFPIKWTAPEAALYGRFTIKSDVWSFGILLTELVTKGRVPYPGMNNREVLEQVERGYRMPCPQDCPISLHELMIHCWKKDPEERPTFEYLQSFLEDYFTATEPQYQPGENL
Sequence of Serine/threonine-protein kinase N2 (Homo sapiens) (Q16513 whole entry, looked up): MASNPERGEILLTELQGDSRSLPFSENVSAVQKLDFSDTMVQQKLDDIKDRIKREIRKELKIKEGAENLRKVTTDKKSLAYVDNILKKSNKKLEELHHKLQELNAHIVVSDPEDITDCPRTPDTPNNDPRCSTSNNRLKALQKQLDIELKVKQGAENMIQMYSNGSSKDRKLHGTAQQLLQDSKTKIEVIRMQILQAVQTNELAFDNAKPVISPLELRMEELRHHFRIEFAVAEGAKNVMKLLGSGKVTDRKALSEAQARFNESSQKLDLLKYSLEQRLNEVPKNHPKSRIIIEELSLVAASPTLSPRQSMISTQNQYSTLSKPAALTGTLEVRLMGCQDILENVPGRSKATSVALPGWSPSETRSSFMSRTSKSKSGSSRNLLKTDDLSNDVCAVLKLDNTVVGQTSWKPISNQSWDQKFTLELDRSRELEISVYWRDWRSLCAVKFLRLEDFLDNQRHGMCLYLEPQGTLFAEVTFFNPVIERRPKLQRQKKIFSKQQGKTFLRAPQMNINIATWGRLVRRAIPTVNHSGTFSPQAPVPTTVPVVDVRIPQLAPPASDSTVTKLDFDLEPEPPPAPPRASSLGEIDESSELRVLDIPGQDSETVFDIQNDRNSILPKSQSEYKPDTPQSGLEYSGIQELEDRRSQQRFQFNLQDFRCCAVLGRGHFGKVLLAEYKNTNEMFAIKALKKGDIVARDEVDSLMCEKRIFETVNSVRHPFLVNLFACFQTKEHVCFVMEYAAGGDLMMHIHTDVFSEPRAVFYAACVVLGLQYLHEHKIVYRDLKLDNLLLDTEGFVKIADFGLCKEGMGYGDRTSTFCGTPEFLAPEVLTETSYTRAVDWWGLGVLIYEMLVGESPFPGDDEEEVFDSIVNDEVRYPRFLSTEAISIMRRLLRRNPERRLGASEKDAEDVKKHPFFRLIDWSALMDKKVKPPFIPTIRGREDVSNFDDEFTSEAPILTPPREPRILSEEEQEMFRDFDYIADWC
Sequence of Interleukin-1 receptor-associated kinase 4 (Homo sapiens) (Q9NWZ3 whole entry): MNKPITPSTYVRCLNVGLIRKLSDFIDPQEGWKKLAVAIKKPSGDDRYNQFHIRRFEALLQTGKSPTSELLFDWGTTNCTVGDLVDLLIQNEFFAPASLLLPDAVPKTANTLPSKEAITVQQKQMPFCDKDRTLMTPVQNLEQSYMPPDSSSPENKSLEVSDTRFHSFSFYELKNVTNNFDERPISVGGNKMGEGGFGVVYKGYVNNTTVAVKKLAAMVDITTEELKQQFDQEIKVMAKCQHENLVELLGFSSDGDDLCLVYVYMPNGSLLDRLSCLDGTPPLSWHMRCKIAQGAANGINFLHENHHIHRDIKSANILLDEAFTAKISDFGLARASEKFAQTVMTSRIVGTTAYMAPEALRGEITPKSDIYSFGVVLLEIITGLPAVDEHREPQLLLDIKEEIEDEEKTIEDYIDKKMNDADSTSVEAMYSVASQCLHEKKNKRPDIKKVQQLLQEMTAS

In the case of `O=C(Nc1cc(Cl)cc(Cl)c1)Nc1nc2ccc([N+](=O)[O-])cc2s1`, the inhibition [1] is reported as “Active”, the inhibition [2] is reported as “inactive” and the IC50 [3] is reported as 2500 nM. The Activity [4] was “Non-Toxic”, the Stability [5] was “Stable” and the inhibition [6] was “inactive”. The Activity [7] was “Active”, the inhibition [8] was “inactive” and the Activity [9] was “Active”. The inhibition [10] was “inactive”, the half-life [11] was 1.8 h and the inhibition [12] was “inactive”. The hepatocyte CLint [13] was 35.9 µL/min/1e6 cells, the Activity [14] was “Active” and the inhibition [15] was “inactive”. For the same compound, the hepatocyte CLint [16] was 65.8 µL/min/1e6 cells, the half-life [17] was greater than 1 h and the inhibition [18] was “inactive”. For the same compound, the inhibition [19] was “inactive”, the inhibition [20] was “Active” and the solubility [21] was 1.9 µM (≈ 0.728 µg/mL). The inhibition [22] was “inactive”, the C0 [23] was 3600 nM and the Activity [24] was “inactive”. The Activity [25] was “Non-Toxic”, the inhibition [26] was “inactive” and the inhibition [27] was “inactive”. The Cmax [28] was 2000 nM, the inhibition [29] was “inactive” and the remaining at 2 h [30] was 101%. It also gave a half-life [31] greater than 4.82 h, an inhibition in vivo at 100 mg/kg [32] of 87% and a half-life [33] of 0.643 h. The IC50 [34] was 2500 nM, the inhibition [35] was “inactive” and the IC50 [36] was 4000 nM. For the same compound, the inhibition [37] was “inactive”, the inhibition [38] was “inactive” and the inhibition [39] was “inactive”. For the same compound, the inhibition [40] was “inactive” and the solubility [41] was 3.4 µM (≈ 1.3 µg/mL).
